In US20240366589A1, “NHE3-BINDING COMPOUNDS AND METHODS FOR INHIBITING PHOSPHATE TRANSPORT” (Ardelyx, Inc., priority 2013, published 2024):

Legend:
Rat NHE3 = target: T1, Rat NHE3 (Rattus norvegicus, UniProt P26433); test: Cell-based NHE3 activity under prompt conditions (OK cells, BCECF pH recovery), rat NHE3; details: prompt conditions
T1 construct: expressed in transfected cells; host or cells: Opossum kidney (OK) cells (ATCC), electroporation
Procedure, shortened: (§1)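 OK cells electroporated with rat or human NHE3 gene, loaded 30 min at room temperature with 5 μM BCECF-AM in NH4Cl-HEPES pH 7.4.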

Human NHE3 = target: T2, Human NHE3 (Homo sapiens, UniProt P48764); test: Cell-based NHE3 activity under prompt conditions (OK cells, BCECF pH recovery), human NHE3; details: prompt conditions
T2 construct: expressed in transfected cells; host or cells: Opossum kidney (OK) cells (ATCC), electroporation
T2 sequence (P48764 26-834): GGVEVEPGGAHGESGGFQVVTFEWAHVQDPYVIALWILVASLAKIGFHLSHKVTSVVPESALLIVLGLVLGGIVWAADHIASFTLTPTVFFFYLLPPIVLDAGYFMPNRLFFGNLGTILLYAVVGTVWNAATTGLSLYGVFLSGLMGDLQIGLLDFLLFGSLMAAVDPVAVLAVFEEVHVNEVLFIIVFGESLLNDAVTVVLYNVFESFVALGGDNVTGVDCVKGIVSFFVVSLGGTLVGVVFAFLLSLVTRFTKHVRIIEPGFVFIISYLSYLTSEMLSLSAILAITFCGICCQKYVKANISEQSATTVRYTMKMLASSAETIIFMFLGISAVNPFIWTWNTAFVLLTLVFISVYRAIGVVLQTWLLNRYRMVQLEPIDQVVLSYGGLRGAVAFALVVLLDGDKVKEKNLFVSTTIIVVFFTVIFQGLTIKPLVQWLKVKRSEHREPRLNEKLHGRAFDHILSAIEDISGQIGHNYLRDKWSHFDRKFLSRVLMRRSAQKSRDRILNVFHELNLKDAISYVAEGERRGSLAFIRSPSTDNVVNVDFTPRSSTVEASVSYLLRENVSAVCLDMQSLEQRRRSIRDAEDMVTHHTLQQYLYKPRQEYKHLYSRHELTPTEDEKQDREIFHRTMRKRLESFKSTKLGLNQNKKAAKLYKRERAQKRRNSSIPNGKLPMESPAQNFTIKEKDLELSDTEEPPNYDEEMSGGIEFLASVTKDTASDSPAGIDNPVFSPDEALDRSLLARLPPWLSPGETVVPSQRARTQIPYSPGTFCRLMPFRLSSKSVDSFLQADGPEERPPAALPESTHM
Procedure, shortened: as §1

[1] = system: absorption of sodium from the intestinal lumen; test: Inhibition of intestinal sodium absorption: urinary sodium (uNa) 16 h after single oral dose in rats; assay type: in vivo, rat; details: oral gavage, 16 h post-dose
Procedure, shortened: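 Eight-week-old Sprague-Dawley rats (n=6) given single oral gavage of compound or water vehicle in the late afternoon, then kept in metabolic cages with chow and water ad libitum. Urine collected over 16 h; sodium quantified by ion chromatography and expressed as % of vehicle mean, compared by one-way ANOVA with Dunnett's test.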

[2] = system: absorption of sodium from the intestinal lumen; test: Fecal form score (FFS) 16 h after oral dose in rats; assay type: in vivo, rat; details: oral gavage, 16 h post-dose, scale 1-5
Procedure, shortened: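 Eight-week-old Sprague-Dawley rats (n=6) dosed by oral gavage with compound or water vehicle between 4 and 5 PM, then housed in metabolic cages with food and water ad libitum. At 16 h, fecal form scored 1 (normal pellet) to 5 (liquid streams) by two observers; group mean reported.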

[3] = system: phosphorus and calcium levels in the urine of rats; test: Urinary excretion of phosphate and calcium in rats (16 h overnight urine); assay type: in vivo, rat; details: rats, oral gavage, 16 h post-dose

T1 sequence (P26433 29-831): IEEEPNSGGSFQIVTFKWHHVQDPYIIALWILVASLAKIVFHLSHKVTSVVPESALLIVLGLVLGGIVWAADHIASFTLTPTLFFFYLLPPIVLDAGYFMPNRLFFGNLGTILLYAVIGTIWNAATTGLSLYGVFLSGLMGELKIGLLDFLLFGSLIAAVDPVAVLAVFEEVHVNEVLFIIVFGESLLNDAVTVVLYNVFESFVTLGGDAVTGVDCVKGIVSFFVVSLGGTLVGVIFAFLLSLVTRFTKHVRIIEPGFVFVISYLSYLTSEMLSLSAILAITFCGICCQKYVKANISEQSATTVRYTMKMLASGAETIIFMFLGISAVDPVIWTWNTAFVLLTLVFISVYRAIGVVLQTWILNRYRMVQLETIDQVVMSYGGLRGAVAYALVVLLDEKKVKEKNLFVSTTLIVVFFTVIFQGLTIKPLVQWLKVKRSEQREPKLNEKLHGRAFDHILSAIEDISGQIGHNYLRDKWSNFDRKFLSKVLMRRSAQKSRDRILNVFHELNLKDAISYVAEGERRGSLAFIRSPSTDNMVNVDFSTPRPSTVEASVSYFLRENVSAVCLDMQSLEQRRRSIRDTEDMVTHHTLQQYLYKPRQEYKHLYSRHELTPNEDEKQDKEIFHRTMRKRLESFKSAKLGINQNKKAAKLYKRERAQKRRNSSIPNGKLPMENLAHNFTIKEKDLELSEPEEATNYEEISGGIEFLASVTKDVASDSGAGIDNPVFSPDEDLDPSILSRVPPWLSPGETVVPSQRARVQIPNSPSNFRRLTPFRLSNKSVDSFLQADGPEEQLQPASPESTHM

| Structure (SMILES) | Prompt Rat NHE3 pIC50 (Rat NHE3) | Prompt Human NHE3 pIC50 (Human NHE3) | Urine Na % of control ([1]; dose 10 mg/kg) [%] | Fecal Form Score average ([2]; dose 10 mg/kg) | Urine P % of control ([3]; dose 10 mg/kg) [%] | Urine Na % of control ([1]; dose 1 mg/kg) [%] | Fecal Form Score average ([2]; dose 1 mg/kg) | Urine P % of control ([3]; dose 1 mg/kg) [%] |
| --- | --- | --- | --- | --- | --- | --- | --- | --- |
| N=C(N)Nc1nc(-c2cccc(N3CCN(CCOCCOCCOCCNC(=O)CCOCCOCCOCCOCCOCCOCCOCCC(=O)NCCOCCOCCOCCN4CCN(c5cccc(-c6nc(NC(=N)N)nc7ccc(Cl)cc67)c5)CC4)CC3)c2)c2cc(Cl)ccc2n1 [compound 32] | 7.30 | 8.40 | 128 | 1 | 122 |  |  |  |
| CN(CC(=O)NCCOCCOCCNC(=O)NCCOCCOCCN1CCN(c2cccc(-c3nc(NC(=N)N)nc4ccc(Cl)cc34)c2)CC1)CC(=O)NCCOCCOCCNC(=O)NCCOCCOCCN1CCN(c2cccc(-c3nc(NC(=N)N)nc4ccc(Cl)cc34)c2)CC1 [compound 33] | 7.40 | 7.90 | 98 | 1 | 117 |  |  |  |
| N=C(N)Nc1nc(-c2ccc(OCCOCCOCCOCCNC(=O)NCCOCCOCCNC(=O)CN(CCN(CC(=O)O)CC(=O)NCCOCCOCCNC(=O)NCCOCCOCCOCCOc3ccc(-c4nc(NC(=N)N)nc5ccc(Cl)cc45)cc3)CC(=O)O)cc2)c2cc(Cl)ccc2n1 [compound 35] | 8.00 | 8.30 | 65 | 1 | 57 |  |  |  |
| N=C(N)Nc1nc(-c2ccc(OCCOCCOCCOCCN)cc2)c2cc(Cl)ccc2n1 [compound 37] | 7.50 | 7.50 | 63 | 1 | 101 |  |  |  |
| N=C(N)Nc1nc(-c2cccc(N3CCN(CCOCCOCCOCCNC(=O)NCCOCCOCCNC(=O)CN(CCN(CC(=O)O)CC(=O)NCCOCCOCCNC(=O)NCCOCCOCCOCCN4CCN(c5cccc(-c6nc(NC(=N)N)nc7ccc(Cl)cc67)c5)CC4)CC(=O)O)CC3)c2)c2cc(Cl)ccc2n1 [compound 41] | 7.90 | 8.20 | 104 | 1 | 133 |  |  |  |
| CN(CC(=O)NCCOCCOCCNC(=O)NCCOCCOCCOCCN1CCN(c2cccc(-c3nc(NC(=N)N)nc4ccc(Cl)cc34)c2)CC1)CC(=O)NCCOCCOCCNC(=O)NCCOCCOCCOCCN1CCN(c2cccc(-c3nc(NC(=N)N)nc4ccc(Cl)cc34)c2)CC1 [compound 42] | 7.70 | 8.20 | 94 | 1 | 94 |  |  |  |
| CN(CC(=O)NCCOCCOCCNC(=O)NCCOCCOCCOCCOc1cccc(-c2nc(NC(=N)N)nc3ccc(Cl)cc23)c1)CC(=O)NCCOCCOCCNC(=O)NCCOCCOCCOCCOc1cccc(-c2nc(NC(=N)N)nc3ccc(Cl)cc23)c1 [compound 43] | 7.50 | 7.70 | 70 | 1 | 101 |  |  |  |
| N=C(N)Nc1nc(-c2cccc(OCCOCCOCCOCCNC(=O)NCCOCCOCCNC(=O)CN(CCN(CC(=O)O)CC(=O)NCCOCCOCCNC(=O)NCCOCCOCCOCCOc3cccc(-c4nc(NC(=N)N)nc5ccc(Cl)cc45)c3)CC(=O)O)c2)c2cc(Cl)ccc2n1 [compound 44] | 7.70 | 7.90 | 88 | 1 | 102 |  |  |  |
| CN(CC(=O)NCCOCCOCCNC(=O)NCCOCCOCCOCCN1CCN(c2ccc(-c3nc(N=C(N)N)nc4ccc(Cl)cc34)cc2)CC1)CC(=O)NCCOCCOCCNC(=O)NCCOCCOCCOCCN1CCN(c2ccc(-c3nc(N=C(N)N)nc4ccc(Cl)cc34)cc2)CC1 [compound 45] | 7.50 | 7.90 | 97 | 1 | 109 |  |  |  |
| NC(N)=Nc1nc(-c2ccc(N3CCN(CCOCCOCCOCCNC(=O)NCCOCCOCCNC(=O)CN(CCN(CC(=O)O)CC(=O)NCCOCCOCCNC(=O)NCCOCCOCCOCCN4CCN(c5ccc(-c6nc(N=C(N)N)nc7ccc(Cl)cc67)cc5)CC4)CC(=O)O)CC3)cc2)c2cc(Cl)ccc2n1 [compound 46] | 7.80 | 7.90 | 58 | 1 | 112 |  |  |  |

The next lines start with results.

| Prompt Rat NHE3 pIC50 (Rat NHE3) | Prompt Human NHE3 pIC50 (Human NHE3) | Structure (SMILES) | Urine Na % of control ([1]; dose 10 mg/kg) [%] | Fecal Form Score average ([2]; dose 10 mg/kg) | Urine P % of control ([3]; dose 10 mg/kg) [%] | Urine Na % of control ([1]; dose 1 mg/kg) [%] | Fecal Form Score average ([2]; dose 1 mg/kg) | Urine P % of control ([3]; dose 1 mg/kg) [%] |
| --- | --- | --- | --- | --- | --- | --- | --- | --- |
| 7.50 | 8.10 | C/C(=C\c1cc(F)c(Oc2ccc(S(=O)(=O)NCCOCCOCCOCCNC(=O)NCCCCNC(=O)NCCOCCOCCOCCNS(=O)(=O)c3ccc(Oc4c(F)cc(/C=C(\C)C(=O)N=C(N)N)cc4F)cc3)cc2)c(F)c1)C(=O)N=C(N)N [compound 29] | 92 | 1 | 102 |  |  |  |
| 7.80 | 8.40 | C/C(=C\c1cc(F)c(Oc2ccc(S(=O)(=O)NCCOCCOCCOCCNC(=O)N(C)CCCCN(C)C(=O)NCCOCCOCCOCCNS(=O)(=O)c3ccc(Oc4c(F)cc(/C=C(\C)C(=O)N=C(N)N)cc4F)cc3)cc2)c(F)c1)C(=O)N=C(N)N [compound 30] | 100 | 1 | 104 |  |  |  |
| 7.70 | 7.70 | C/C(=C\c1cc(F)c(Oc2ccc(S(=O)(=O)NCCOCCOCCOCCNC(=O)N3CCN(C(=O)NCCOCCOCCOCCNS(=O)(=O)c4ccc(Oc5c(F)cc(/C=C(\C)C(=O)N=C(N)N)cc5F)cc4)CC3)cc2)c(F)c1)C(=O)N=C(N)N [compound 31] | 96 | 1 | 81 |  |  |  |
| 7.90 | 8.20 | CN(CC(=O)NCCOCCOCCNC(=O)NCCOCCOCCOCCOc1ccc(-c2nc(NC(=N)N)nc3ccc(Cl)cc23)cc1)CC(=O)NCCOCCOCCNC(=O)NCCOCCOCCOCCOc1ccc(-c2nc(NC(=N)N)nc3ccc(Cl)cc23)cc1 [compound 34] | 76 | 1 | 72 |  |  |  |
| 7.60 | 8.00 | N=C(N)Nc1nc(-c2ccc(OCCOCCOCCOCCNC(=O)NCCOCCOCCNC(=O)NCCCCNC(=O)NCCOCCOCCNC(=O)NCCOCCOCCOCCOc3ccc(-c4nc(NC(=N)N)nc5ccc(Cl)cc45)cc3)cc2)c2cc(Cl)ccc2n1 [compound 36] | 85 | 1 | 86 |  |  |  |
| <5.00 | <5.00 | CN1Cc2c(Cl)cc(Cl)cc2[C@@H](c2cccc(S(=O)(=O)NCCOCCOCCNC(=O)NCCCCNC(=O)NCCOCCOCCNS(=O)(=O)c3cccc([C@H]4CN(C)Cc5c(Cl)cc(Cl)cc54)c3)c2)C1 [compound 40] | 90 | 1 | 128 | 80 | 1 | 149 |
| 7.65 | 7.40 | O=C(O)CN(CCN(CC(=O)O)CC(=O)NCCOCCOCCOCCNS(=O)(=O)c1ccc(OC2c3ccccc3CC2N2CCCCC2)cc1)CC(=O)NCCOCCOCCOCCNS(=O)(=O)c1ccc(OC2c3ccccc3CC2N2CCCCC2)cc1 (stereo not drawn) [compound 49] | 38 | 1 | 77 |  |  |  |
| 7.35 | 7.40 | CN(CC(=O)NCCOCCOCCOCCNS(=O)(=O)c1ccc(OC2c3ccccc3CC2N2CCCCC2)cc1)CC(=O)NCCOCCOCCOCCNS(=O)(=O)c1ccc(OC2c3ccccc3CC2N2CCCCC2)cc1 (stereo not drawn) [compound 52] | 68 | 1 | 71 |  |  |  |
